Measured values: US20240409536A1, “COMPOUNDS AND METHODS FOR MODULATING SPLICING” (REMIX THERAPEUTICS INC., priority 2021, published 2024)
Where a name gives a salt, the structure may show the parent alone.

What was measured:
HiBiT-tagged MYB protein = assay: HiBiT protein abundance assay, MYB (K562 HiBiT knock-in cells); format: cell-based, human; conditions: 24 hours
Protocol: (§1) Compounds described herein were used to screen for effects on quantitative protein abundance using a HiBit assay system (Promega). Quantitative protein abundance was determined by measuring the protein levels of HiBit-tagged protein targets expressed in cell culture via luminescence using the Nano-Glo HiBiT Lytic Detection System, which uses a split complementation assay format to reconstitute NanoBiT enzyme to generate a luminescent signal. A protein abundance assay was developed such that endogenous protein targets could be modified with the HiBiT peptide tag and their abundance could be assessed after compound treatment. Briefly, K562 cell lines containing a HiBiT-modification were treated with various compounds described herein (e.g., compounds of Formulas (I), (II), or (III)). After treatment for 24 hours, the protein abundance of a specific target was determined by measuring luminescence.
(§2) • Promega Nano-Glo HiBiT Lytic Detection System (cat #N3030) • Corning 384-well TC-treated microplates (cat #3570) • Synthego Engineered Cells Knock-In Clones
(§3) Cells were maintained in IMDM with 10% FBS. Before the assay, cells were diluted with […] growth media (IMDM+1% FBS media) and were seeded in a 384-well plate at a density of 10000 cells/well (for each cell line listed in Table 6). Each compound was prepared as a 10-point 3-fold serial dilution in DMSO with the top dose at a final concentration of 10 μM in the well. Unmodified K562 cells were added at the previously specified density with DMSO to serve as an assay baseline and positive control (PC) and DMSO only with the respective modified cell lines was added to the negative control (NC) columns. Final DMSO concentration was kept at or below 0.25%. Treated cell plates were placed in an incubator at 37° C. with 5% CO2 for 24 hours. After 24 hours, 25 μL of Complete HiBit Lytic reagent was added to each well at room temperature (e.g. one plate requiring 10 mL Lytic Buffer, 100 μL LgBiT Protein, 200 μL Lytic Substrate), shaken for 5 minutes at 600 RPM, then left to sit for 10 minutes for signal to stabilize before reading on a Spark Cyto plate reader (Tecan) with a 500 ms measurement time.
(§4) To determine compound effects on protein abundance of each target in Table 6, the percent response for each respective cell line was calculated at each compound concentration as follows:
(§5) For the normalized response at each concentration, a four-parameter logistical regression was fit to the data and the response was interpolated at the 50% value to determine a concentration for protein abundance at 50% (IC50) the untreated control.

HiBiT-tagged HTT protein = assay: HiBiT protein abundance assay, HTT (K562 HiBiT knock-in cells); format: cell-based, human; conditions: 24 hours
Protocol: as §1, §2, §3, §4, §5

Target C = assay: HiBiT protein abundance assay, Target C (K562 HiBiT knock-in cells); format: cell-based, human; conditions: 24 hours
Protocol: as §2, §3, §4, §5

K562 cells = assay: Cell Titer Glo 2.0 cell viability assay in K562 cells; conditions: 72 hours
HTT mRNA = assay: Splicing RT-qPCR assay, HTT canonical (CJ) and alternative (AJ) junction mRNA; format: cell-based; conditions: Homo sapiens, A673 or K562 cells, 24 hours
Method in brief: (§6)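 Splice switching was scored by qPCR detection of the new alternative-exon junction (AJ) alongside the canonical junction (CJ). Cell lines A673 or K562 received compound 24 h, top dose 10 uM final.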

MYB mRNA = assay: Splicing RT-qPCR assay, MYB canonical (CJ) and alternative (AJ) junction mRNA; format: cell-based; conditions: Homo sapiens, A673 or K562 cells, 24 hours
Method in brief: as §6

[1] = decrease in canonical junction mRNA
[2] = increase in alternative junction mRNA

Row | IC50 (HiBiT-tagged MYB protein) [nM] | IC50 (HiBiT-tagged HTT protein) [nM] | IC50 (Target C) [nM] | IC50 (HTT mRNA; [1]) [nM] | IC50 (MYB mRNA; [1]) [nM] | Compound | Viability (K562 cells) | AC50 (HTT mRNA; [2]) [nM] | AC50 (MYB mRNA; [2]) [nM]
1 | < 100 | 100 to 1000 | 100 to 1000 | – | – | Cc1ccc2c(N3CCC4(CCN4)CC3)ccc(C(=O)Nc3cc(F)c4nc(C)cn4c3)c2n1 [Compound 195, 5-{1,7-diazaspiro[3.5]nonan-7-yl}-N-{8-fluoro-2-methylimidazo[1,2-a]pyridin-6-yl}-2-methylquinoline-8-carboxamide] | A (A represents <100 nM) | – | –
2 | 100 to 1000 | 1000 to 10000 | 1000 to 10000 | 1000 to 10000 | 100 to 1000 | Cc1cn2cc(NC(=O)c3ccc(N4CCN[C@@H](CO)C4)c4nccnc34)cc(F)c2n1 [Compound 361] | B (B represents 100-1000 nM) | 1000 to 10000 | < 100
3 | < 100 | 1000 to 10000 | 1000 to 10000 | – | – | Cc1cn2cc(NC(=O)c3ccc(N4CCNC(C)C4)c4nccnc34)cc(F)c2n1 (stereo not drawn) [Compound 157] | A (A represents <100 nM) | – | –
4 | < 100 | 100 to 1000 | 1000 to 10000 | – | – | CCNC1CCN(c2ccc(C(=O)Nc3cc(F)c4nc(C)cn4c3)c3nnccc23)CC1 [Compound 139, 5-[4-(ethylamino)piperidin-1-yl]-N-{8-fluoro-2-methylimidazo[1,2-a]pyridin-6-yl}cinnoline-8-carboxamide] | A (A represents <100 nM) | – | –
5 | 100 to 1000 | 100 to 1000 | 100 to 1000 | – | – | Cc1cnc2c(C(=O)Nc3cc(F)c4nc(C)cn4c3)ccc(N3CCNCC3)c2n1 [Compound 198] | B (B represents 100-1000 nM) | – | –
6 | 100 to 1000 | 100 to 1000 | 1000 to 10000 | – | – | Cc1cn2cc(NC(=O)c3ccc(N4CCC(N(C)C)CC4)c4nccnc34)cc(F)c2n1 [Compound 158, 8-(4-(dimethylamino)piperidin-1-yl)-N-(8-fluoro-2-methylimidazo[1,2-a]pyridin-6-yl)quinoxaline-5-carboxamide] | B (B represents 100-1000 nM) | – | –
7 | < 100 | 100 to 1000 | 100 to 1000 | – | – | Cc1cn2cc(NC(=O)c3ccc(N4CCNCC4)c4ccnnc34)cc(F)c2n1 [Compound 101] | B (B represents 100-1000 nM) | – | –
8 | < 100 | 100 to 1000 | 1000 to 10000 | – | – | Cc1cn2cc(NC(=O)c3ccc(N4CCNCC4)c4cncnc34)cc(F)c2n1 [Compound 112] | B (B represents 100-1000 nM) | – | –
9 | 1000 to 10000 | 1000 to 10000 | 1000 to 10000 | – | – | CN[C@H]1CCN(c2ccc(C(=O)Nc3cc(F)c4nc(C)cn4c3)c3nc(OC)cnc23)C1 [Compound 203, (S)—N-{8-fluoro-2-methylimidazo[1,2-a]pyridin-6-yl}-3-methoxy-8-[3-(methylamino)pyrrolidin-1-yl]quinoxaline-5-carboxamide; trifluoroacetic acid] | C (C represents 1000-9999 nM) | – | –
10 | < 100 | 1000 to 10000 | 1000 to 10000 | – | – | Cc1cn2cc(NC(=O)c3ccc(N4CCN[C@H](C)C4)c4nccnc34)cc(F)c2n1 [Compound 188, N-{8-fluoro-2-methylimidazo[1,2-a]pyridin-6-yl}-8-(3-methylpiperazin-1-yl)quinoxaline-5-carboxamide] | B (B represents 100-1000 nM) | – | –
11 | < 100 | 100 to 1000 | 1000 to 10000 | – | – | Cc1cn2cc(NC(=O)c3ccc(N4CCC5(CCN5)CC4)c4ccnnc34)cc(F)c2n1 [Compound 171, 5-{1,7-diazaspiro[3.5]nonan-7-yl}-N-{8-fluoro-2-methylimidazo[1,2-a]pyridin-6-yl}cinnoline-8-carboxamide trifluoroacetate] | B (B represents 100-1000 nM) | – | –
